{"source": "PubChem BioAssay (NCI)", "assay_in_all_cases": "NCI tumour cell line growth inhibition, 48 h", "key": {"[1]": {"system": "UACC-257 melanoma"}, "[2]": {"system": "HCT-15 colon"}, "[3]": {"system": "MCF7 breast"}, "[4]": {"system": "NCI-H522 lung"}, "[5]": {"system": "HCT-116 colon"}, "[6]": {"system": "RPMI-8226 leukemia"}, "[7]": {"system": "MDA-MB-435"}, "[8]": {"system": "OVCAR-4 ovarian"}, "[9]": {"system": "LOX IMVI melanoma"}, "[10]": {"system": "OVCAR-3 ovarian"}, "[11]": {"system": "HCC-2998 colon"}, "[12]": {"system": "K-562 leukemia"}, "[13]": {"system": "HT29 colon"}, "[14]": {"system": "T-47D breast"}, "[15]": {"system": "UO-31 renal"}, "[16]": {"system": "A498 renal"}, "[17]": {"system": "NCI-H460 lung"}, "[18]": {"system": "SF-268 CNS"}, "[19]": {"system": "DU-145 prostate"}, "[20]": {"system": "SK-MEL-5 melanoma"}, "[21]": {"system": "KM12 colon"}, "[22]": {"system": "SF-295 CNS"}, "[23]": {"system": "HOP-92 NSCLC"}, "[24]": {"system": "OVCAR-8 ovarian"}, "[25]": {"system": "SK-OV-3 ovarian"}, "[26]": {"system": "SN12C renal"}, "[27]": {"system": "BT-549 breast"}, "[28]": {"system": "MALME-3M melanoma"}, "[29]": {"system": "SW-620 colon"}, "[30]": {"system": "SF-539 CNS"}, "[31]": {"system": "EKVX NSCLC"}, "[32]": {"system": "IGROV1 ovarian"}, "[33]": {"system": "CCRF-CEM leukemia"}, "[34]": {"system": "COLO 205 colon"}, "[35]": {"system": "UACC-62 melanoma"}, "[36]": {"system": "CAKI-1 renal"}, "[37]": {"system": "HS 578T breast"}, "[38]": {"system": "HOP-62 NSCLC"}, "[39]": {"system": "MOLT-4 leukemia"}, "[40]": {"system": "SNB-75 CNS"}, "[41]": {"system": "SK-MEL-28 melanoma"}, "[42]": {"system": "U251 CNS"}, "[43]": {"system": "RXF 393 renal"}, "[44]": {"system": "SR leukemia"}, "[45]": {"system": "NCI-H23 lung"}, "[46]": {"system": "OVCAR-5 ovarian"}, "[47]": {"system": "SK-MEL-2 melanoma"}, "[48]": {"system": "SNB-19 CNS"}, "[49]": {"system": "M14 melanoma"}, "[50]": {"system": "786-0 renal"}, "[51]": {"system": "ACHN renal"}, "[52]": {"system": "A549 NSCLC"}, "[53]": {"system": "TK-10 renal"}, "[54]": {"system": "NCI-H226 lung"}}, "note": "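Cells were grown in 96-well plates and exposed to each compound for 48 hours at five concentrations; endpoints were interpolated linearly between bracketing concentrations, or set to the highest concentration if not reached. The concentration for 50% growth inhibition is given as GI50. TGI is the concentration that stops growth completely.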", "data": [{"smiles": "COC(=O)c1c2c(c(C)[n+]([O-])c1C)C(=O)C(NCc1ccccc1)=CC2=O", "values": [{"measurement": "GI50", "setting": "[1]", "result": 1.7, "unit": "µM"}, {"measurement": "TGI", "setting": "[1]", "result": 4.02, "unit": "µM"}, {"measurement": "GI50", "setting": "[2]", "result": 1.7, "unit": "µM"}, {"measurement": "TGI", "setting": "[2]", "result": 4.44, "unit": "µM"}, {"measurement": "GI50", "setting": "[3]", "result": 1.65, "unit": "µM"}, {"measurement": "TGI", "setting": "[3]", "result": 3.73, "unit": "µM"}, {"measurement": "GI50", "setting": "[4]", "result": 2.45, "unit": "µM"}, {"measurement": "TGI", "setting": "[4]", "result": 7.62, "unit": "µM"}, {"measurement": "GI50", "setting": "[5]", "result": 2.47, "unit": "µM"}, {"measurement": "TGI", "setting": "[5]", "result": 9.48, "unit": "µM"}, {"measurement": "GI50", "setting": "[6]", "result": 2.61, "unit": "µM"}, {"measurement": "TGI", "setting": "[6]", "result": 10.1, "unit": "µM"}, {"measurement": "GI50", "setting": "[7]", "result": 1.81, "unit": "µM"}, {"measurement": "TGI", "setting": "[7]", "result": 3.3, "unit": "µM"}, {"measurement": "GI50", "setting": "[8]", "result": 1.13, "unit": "µM"}, {"measurement": "TGI", "setting": "[8]", "result": 2.4, "unit": "µM"}, {"measurement": "GI50", "setting": "[9]", "result": 2.72, "unit": "µM"}, {"measurement": "TGI", "setting": "[9]", "result": 10.2, "unit": "µM"}, {"measurement": "GI50", "setting": "[10]", "result": 0.613, "unit": "µM"}, {"measurement": "TGI", "setting": "[10]", "result": 3.67, "unit": "µM"}, {"measurement": "GI50", "setting": "[11]", "result": 2.8, "unit": "µM"}, {"measurement": "TGI", "setting": "[11]", "result": 7.98, "unit": "µM"}, {"measurement": "GI50", "setting": "[12]", "result": 2.94, "unit": "µM"}, {"measurement": "TGI", "setting": "[12]", "result": 16.3, "unit": "µM"}, {"measurement": "GI50", "setting": "[13]", "result": 1.97, "unit": "µM"}, {"measurement": "TGI", "setting": "[13]", "result": 10.2, "unit": "µM"}, {"measurement": "GI50", "setting": "[14]", "result": 1.88, "unit": "µM"}, {"measurement": "TGI", "setting": "[14]", "result": 5.35, "unit": "µM"}, {"measurement": "GI50", "setting": "[15]", "result": 2.9, "unit": "µM"}, {"measurement": "TGI", "setting": "[15]", "result": 10.1, "unit": "µM"}, {"measurement": "GI50", "setting": "[16]", "result": 4.72, "unit": "µM"}, {"measurement": "TGI", "setting": "[16]", "result": 16.1, "unit": "µM"}, {"measurement": "GI50", "setting": "[17]", "result": 2.74, "unit": "µM"}, {"measurement": "TGI", "setting": "[17]", "result": 10.9, "unit": "µM"}, {"measurement": "GI50", "setting": "[18]", "result": 2.81, "unit": "µM"}, {"measurement": "TGI", "setting": "[18]", "result": 9.69, "unit": "µM"}, {"measurement": "GI50", "setting": "[19]", "result": 3.5, "unit": "µM"}, {"measurement": "TGI", "setting": "[19]", "result": 11.2, "unit": "µM"}, {"measurement": "GI50", "setting": "[20]", "result": 1.23, "unit": "µM"}, {"measurement": "TGI", "setting": "[20]", "result": 2.5, "unit": "µM"}, {"measurement": "GI50", "setting": "[21]", "result": 2.4, "unit": "µM"}, {"measurement": "TGI", "setting": "[21]", "result": 9.6, "unit": "µM"}, {"measurement": "GI50", "setting": "[22]", "result": 2.6, "unit": "µM"}, {"measurement": "TGI", "setting": "[22]", "result": 7.5, "unit": "µM"}, {"measurement": "GI50", "setting": "[23]", "result": 2.8, "unit": "µM"}, {"measurement": "TGI", "setting": "[23]", "result": 6.61, "unit": "µM"}, {"measurement": "GI50", "setting": "[24]", "result": 2.32, "unit": "µM"}, {"measurement": "TGI", "setting": "[24]", "result": 8.73, "unit": "µM"}, {"measurement": "GI50", "setting": "[25]", "result": 2.81, "unit": "µM"}, {"measurement": "TGI", "setting": "[25]", "result": 9.63, "unit": "µM"}, {"measurement": "GI50", "setting": "[26]", "result": 2.13, "unit": "µM"}, {"measurement": "TGI", "setting": "[26]", "result": 5.48, "unit": "µM"}, {"measurement": "GI50", "setting": "[27]", "result": 4.19, "unit": "µM"}, {"measurement": "TGI", "setting": "[27]", "result": 16, "unit": "µM"}, {"measurement": "GI50", "setting": "[28]", "result": 0.617, "unit": "µM"}, {"measurement": "TGI", "setting": "[28]", "result": 1.88, "unit": "µM"}, {"measurement": "GI50", "setting": "[29]", "result": 3.12, "unit": "µM"}, {"measurement": "TGI", "setting": "[29]", "result": 10.6, "unit": "µM"}, {"measurement": "GI50", "setting": "[30]", "result": 2.29, "unit": "µM"}, {"measurement": "TGI", "setting": "[30]", "result": 5.3, "unit": "µM"}, {"measurement": "GI50", "setting": "[31]", "result": 2.09, "unit": "µM"}, {"measurement": "TGI", "setting": "[31]", "result": 5.41, "unit": "µM"}, {"measurement": "GI50", "setting": "[32]", "result": 1.71, "unit": "µM"}, {"measurement": "TGI", "setting": "[32]", "result": 4.42, "unit": "µM"}, {"measurement": "GI50", "setting": "[33]", "result": 2.98, "unit": "µM"}, {"measurement": "TGI", "setting": "[33]", "result": 22.3, "unit": "µM"}, {"measurement": "GI50", "setting": "[34]", "result": 0.977, "unit": "µM"}, {"measurement": "TGI", "setting": "[34]", "result": 2.67, "unit": "µM"}, {"measurement": "GI50", "setting": "[35]", "result": 1.8, "unit": "µM"}, {"measurement": "TGI", "setting": "[35]", "result": 3.56, "unit": "µM"}, {"measurement": "GI50", "setting": "[36]", "result": 2.84, "unit": "µM"}, {"measurement": "TGI", "setting": "[36]", "result": 14.3, "unit": "µM"}, {"measurement": "GI50", "setting": "[37]", "result": 7, "unit": "µM"}, {"measurement": "TGI", "setting": "[37]", "result": 82.4, "unit": "µM"}, {"measurement": "GI50", "setting": "[38]", "result": 3.1, "unit": "µM"}, {"measurement": "TGI", "setting": "[38]", "result": 17.9, "unit": "µM"}, {"measurement": "GI50", "setting": "[39]", "result": 2.21, "unit": "µM"}, {"measurement": "TGI", "setting": "[39]", "result": 5.6, "unit": "µM"}, {"measurement": "GI50", "setting": "[40]", "result": 3.62, "unit": "µM"}, {"measurement": "TGI", "setting": "[40]", "result": 13.9, "unit": "µM"}, {"measurement": "GI50", "setting": "[41]", "result": 4.63, "unit": "µM"}, {"measurement": "TGI", "setting": "[41]", "result": 22.2, "unit": "µM"}, {"measurement": "GI50", "setting": "[42]", "result": 2.46, "unit": "µM"}, {"measurement": "TGI", "setting": "[42]", "result": 7.11, "unit": "µM"}, {"measurement": "GI50", "setting": "[43]", "result": 2.48, "unit": "µM"}, {"measurement": "TGI", "setting": "[43]", "result": 7.88, "unit": "µM"}, {"measurement": "GI50", "setting": "[44]", "result": 3, "unit": "µM"}, {"measurement": "TGI", "setting": "[44]", "result": 31.4, "unit": "µM"}, {"measurement": "GI50", "setting": "[45]", "result": 2.03, "unit": "µM"}, {"measurement": "TGI", "setting": "[45]", "result": 6.09, "unit": "µM"}, {"measurement": "GI50", "setting": "[46]", "result": 2.58, "unit": "µM"}, {"measurement": "TGI", "setting": "[46]", "result": 6.22, "unit": "µM"}, {"measurement": "GI50", "setting": "[47]", "result": 2.63, "unit": "µM"}, {"measurement": "TGI", "setting": "[47]", "result": 9.48, "unit": "µM"}, {"measurement": "GI50", "setting": "[48]", "result": 3.25, "unit": "µM"}, {"measurement": "TGI", "setting": "[48]", "result": 11.2, "unit": "µM"}, {"measurement": "GI50", "setting": "[49]", "result": 1.97, "unit": "µM"}, {"measurement": "TGI", "setting": "[49]", "result": 4.35, "unit": "µM"}, {"measurement": "GI50", "setting": "[50]", "result": 3.68, "unit": "µM"}, {"measurement": "TGI", "setting": "[50]", "result": 23.7, "unit": "µM"}, {"measurement": "GI50", "setting": "[51]", "result": 2.73, "unit": "µM"}, {"measurement": "TGI", "setting": "[51]", "result": 10.1, "unit": "µM"}, {"measurement": "GI50", "setting": "[52]", "result": 2.47, "unit": "µM"}, {"measurement": "TGI", "setting": "[52]", "result": 7.94, "unit": "µM"}, {"measurement": "GI50", "setting": "[53]", "result": 4.48, "unit": "µM"}, {"measurement": "TGI", "setting": "[53]", "result": 18.7, "unit": "µM"}, {"measurement": "GI50", "setting": "[54]", "result": 2.81, "unit": "µM"}, {"measurement": "TGI", "setting": "[54]", "result": 9.9, "unit": "µM"}]}]}
